{
  "source": "patent US6696407B1",
  "about": "“Huntington's disease treatment comprising administering aldose reductase inhibitors to increase striatal CNTF” (The Regents of the University of California, priority 1997, dated 2004)",
  "experiment": "Sciatic nerve water content",
  "format": "in vivo, rat",
  "details": "for Water: sciatic nerve, Ponalrestat 50 mg/kg daily oral, two months",
  "procedure": "These studies were conducted with the approval of the San Diego Veterans Administration Animal Studies Subcommittee. Female Sprague-Dawley rats (240-300 g; Charles River, San Diego, Calif.) were housed in cages with wire bottoms to reduce contact with urine and feces. Groups were established and fed either a 40% D-galactose diet or a control diet specially formulated by Purina that contained 40% solka floc, a nonnutritive fiber, to balance nutritional intake. All diets contained 100% of the micronutrients required by rats and, with water, were available ad libitum. Each of these diet groups contained animals that were treated with the ARI, Ponalrestat (50 mg/kg), daily by oral gavage. After two months, rats were anesthetized by intraperitoneal injection (1 ml/kg ip) of pentobarbital sodium (12.5 mg/ml) and diazepam (1.25 mg/ml) in bacteriostatic saline. Under deep anesthesia, motor nerve conduction velocity (MNCV) was measured in the left hindlimb prior to removal of the sciatic nerve. […]\nFor determination of water content and dry weight, distal segments of sciatic nerve were lightly blotted, weighed prior to freeze-drying and reweighed. Nerve polyols were measured by gas chromatography with α-methylmannoside as an internal standard (Mizisin et al., (1993) J. Neurol. Sci. 116:67-72) using a Hewlett Packard 5890 gas chromatograph (Hewlett Packard, Avondale, Pa.) fitted with a flame ionization detector and a 25 m×0.2 mm capillary column (Hewlett Packard Ultra 1). Nerve water and polyol contents are expressed as mg and nmol per mg nerve dry weight, respectively.\nThe effect of two months of galactose feeding and ARI treatment on body weight, nerve water and polyol content, and MNCV is shown in Table 1. Data are presented as mean ±SD (N=8 to 10) and were analyzed with a one way ANOVA after which multiple comparisons were made with the Student-Newman-Keuls test. […] ARI-treated animals received a daily oral gavage (50 mg/kg) of Ponalrestat (ND—Not detected).",
  "note": "Marks after values point to notes of the source that are not given here.",
  "data": [
    {"smiles": "O=C(O)Cc1nn(Cc2ccc(Br)cc2F)c(=O)c2ccccc12", "note": "[Ponalrestat, 3-(4-bromo-2-fluorobenzyl)-4-oxo-3H-phthalazin-1-ylacetic acid]", "values": [
      {"measurement": "Nerve water content (in words)", "setting": "galactose-fed rats", "result": "restored"},
      {"measurement": "Water", "setting": "40% D-galactose diet rats", "result": "1.8 ± 0.3^a mg/mg dry wt"},
      {"measurement": "Water", "setting": "control diet rats", "result": "1.8 ± 0.1^a mg/mg dry wt"}
    ]}
  ]
}
